Measured values reported in BindingDB's records for doi:10.1128/AAC.00448-06 (National Center For Genetic Engineering and Biotechnology …, 2006).

What was measured:
[1] = target: Bifunctional dihydrofolate reductase-thymidylate synthase (Plasmodium vivax, UniProt O02604); experiment: Inhibitor Screening Using Bacterial System (IC50) and Measurement of Inhibition Constant (Ki); conditions: pH 7; 25 °C
Method: (§1) Nineteen Pyr analogs were studied for their inhibition activity against cells expressing either WT or SP21 mutant PvDHFR-TS. The assays were conducted with 96-well microplates by monitoring the growth at an optical density of 595 nm (A595). The average A595 of control culture omitting Pyr analogs was scored as 100% growth, and the average readings for the cultures at each drug concentration were divided by this value to obtain relative growth values. The concentrations that inhibited 50% bacterial growth (IC50s) were determined from dose-response curves. Inhibition constants (Ki) of antifolates were calculated using a nonlinear least square fit of the data to the Michaelis-Menten equation, assuming the inhibitor binds competitively to the enzyme active site.

[2] = target: T1, Bifunctional dihydrofolate reductase-thymidylate synthase [1-238,S58R,S117N] (Plasmodium vivax, UniProt O02604, S117N/S58R); experiment: as above
T1 construct: 1-238
T1 sequence (O02604 1-238, looked up, stated change not applied): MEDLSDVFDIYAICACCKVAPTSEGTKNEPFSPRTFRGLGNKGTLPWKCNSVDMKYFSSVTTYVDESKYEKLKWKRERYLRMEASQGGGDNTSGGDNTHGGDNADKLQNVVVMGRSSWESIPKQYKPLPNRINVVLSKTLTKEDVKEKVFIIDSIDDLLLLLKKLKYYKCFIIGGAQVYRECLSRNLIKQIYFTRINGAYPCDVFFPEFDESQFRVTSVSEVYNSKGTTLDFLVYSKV
Method: as §1

Bifunctional dihydrofolate reductase-thymidylate synthase, sequence (O02604 whole entry): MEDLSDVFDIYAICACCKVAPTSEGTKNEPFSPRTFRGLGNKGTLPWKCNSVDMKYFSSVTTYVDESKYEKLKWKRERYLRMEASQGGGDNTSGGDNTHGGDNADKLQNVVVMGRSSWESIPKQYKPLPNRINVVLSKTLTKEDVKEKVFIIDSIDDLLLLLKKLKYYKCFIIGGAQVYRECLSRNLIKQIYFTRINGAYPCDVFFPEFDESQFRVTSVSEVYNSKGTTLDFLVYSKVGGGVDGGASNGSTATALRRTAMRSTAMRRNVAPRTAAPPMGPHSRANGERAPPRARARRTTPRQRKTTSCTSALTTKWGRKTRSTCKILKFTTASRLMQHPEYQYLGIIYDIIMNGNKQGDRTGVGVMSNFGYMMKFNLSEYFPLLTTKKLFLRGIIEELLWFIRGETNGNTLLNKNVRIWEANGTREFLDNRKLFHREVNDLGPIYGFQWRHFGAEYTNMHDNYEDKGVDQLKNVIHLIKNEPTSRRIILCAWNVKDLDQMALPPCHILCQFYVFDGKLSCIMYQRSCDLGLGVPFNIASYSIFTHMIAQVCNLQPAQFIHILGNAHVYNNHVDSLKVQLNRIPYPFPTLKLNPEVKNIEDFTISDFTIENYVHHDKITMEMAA

**Q.** With `CCc1nc(N)nc(N)c1-c1ccc(Cl)cc1` as the compound, how does the IC50 [1] read?
**A.** The IC50 was 180 nM.

**Q.** And the Ki [1]?
**A.** The Ki was 0.21 nM.

**Q.** And the IC50 [2]?
**A.** The IC50 was 20000 nM.

**Q.** What about the Ki [2] of the same compound?
**A.** Its Ki is 3.04 nM.

**Q.** How did the IC50 [1] turn out when `Cc1nc(N)nc(N)c1-c1ccc(Cl)cc1` was run?
**A.** Its IC50 is 1950 nM.

**Q.** And the Ki [1]?
**A.** The Ki was 0.78 nM.

**Q.** And the IC50 [2]?
**A.** Its IC50 is greater than 50000 nM.

**Q.** What about the Ki [2] of the same compound?
**A.** Its Ki is 63.4 nM.

**Q.** How did the IC50 [1] turn out when `COC(=O)CCCc1nc(N)nc(N)c1-c1ccc(Cl)cc1` was run?
**A.** Its IC50 is 200 nM.

**Q.** What about the Ki [1] of the same compound?
**A.** Its Ki is 0.69 nM.

**Q.** And the IC50 [2]?
**A.** The IC50 was greater than 50000 nM.

**Q.** What about the Ki [2] of the same compound?
**A.** Its Ki is 7.43 nM.

**Q.** `CCc1nc(N)nc(N)c1-c1ccc(OC)cc1` was tested. Which IC50 [1] did it give?
**A.** The IC50 was 350 nM.

**Q.** And the Ki [1]?
**A.** Its Ki is 1.01 nM.

**Q.** What about the IC50 [2] of the same compound?
**A.** Its IC50 is greater than 50000 nM.

**Q.** And the Ki [2]?
**A.** Its Ki is 37.8 nM.

**Q.** How did the IC50 [1] turn out when `CCc1nc(N)nc(N)c1-c1ccc(Cl)c(Cl)c1` was run?
**A.** Its IC50 is 70 nM.

**Q.** And the Ki [1]?
**A.** Its Ki is 0.52 nM.

**Q.** And the IC50 [2]?
**A.** The IC50 was 10500 nM.

**Q.** And the Ki [2]?
**A.** Its Ki is 1.05 nM.

**Q.** How did the IC50 [1] turn out when `Nc1nc(N)c(-c2cccc(Cl)c2)c(CCCc2ccccc2)n1` was run?
**A.** The IC50 was 2380 nM.

**Q.** What about the Ki [1] of the same compound?
**A.** Its Ki is 0.77 nM.

**Q.** And the IC50 [2]?
**A.** Its IC50 is 13900 nM.

**Q.** What about the Ki [2] of the same compound?
**A.** Its Ki is 1.32 nM.

**Q.** What does the source list for `CCc1nc(N)nc(N)c1-c1ccccc1`?
**A.** IC50 [1]: 1820 nM; Ki [1]: 0.03 nM; IC50 [2]: 1520 nM; Ki [2]: 0.08 nM

**Q.** What does the source list for `Cc1nc(N)nc(N)c1-c1ccccc1`?
**A.** IC50 [1]: 11300 nM; Ki [1]: 4.18 nM; IC50 [2]: 12800 nM; Ki [2]: 22.5 nM

**Q.** For `Nc1nc(N)c(-c2ccccc2)c(CCCc2ccccc2)n1`, which IC50 [1] is on record?
**A.** The IC50 was 800 nM.

**Q.** What about the Ki [1] of the same compound?
**A.** Its Ki is 0.53 nM.

**Q.** And the IC50 [2]?
**A.** Its IC50 is 2760 nM.

**Q.** And the Ki [2]?
**A.** The Ki was 0.81 nM.

**Q.** Which results are given for `Nc1nc(N)c(-c2cccc(Cl)c2)c(CCOCCCOc2ccccc2)n1` [5-(3-chlorophenyl)-6-[2-(3-phenoxypropoxy)ethyl]pyrimidine-2,4-diamine]?
**A.** IC50 [1]: 2270 nM; Ki [1]: 0.63 nM; IC50 [2]: 14200 nM; Ki [2]: 1.53 nM

**Q.** How did the IC50 [1] turn out when `CCc1nc(N)nc(N)c1-c1cccc(Cl)c1` [5-(3-chlorophenyl)-6-ethylpyrimidine-2,4-diamine] was run?
**A.** The IC50 was 360 nM.

**Q.** And the Ki [1]?
**A.** The Ki was 0.31 nM.

**Q.** What about the IC50 [2] of the same compound?
**A.** The IC50 was 300 nM.

**Q.** And the Ki [2]?
**A.** Its Ki is 0.54 nM.

**Q.** `Cc1nc(N)nc(N)c1-c1cccc(Cl)c1` [5-(3-chlorophenyl)-6-methylpyrimidine-2,4-diamine] was tested. Which IC50 [1] did it give?
**A.** Its IC50 is 2120 nM.

**Q.** What about the Ki [1] of the same compound?
**A.** The Ki was 0.69 nM.

**Q.** What about the IC50 [2] of the same compound?
**A.** Its IC50 is 1980 nM.

**Q.** And the Ki [2]?
**A.** Its Ki is 1.19 nM.

**Q.** With `CCc1nc(N)nc(N)c1-c1ccc(Br)cc1` [5-(4-bromophenyl)-6-ethylpyrimidine-2,4-diamine] as the compound, how does the IC50 [1] read?
**A.** The IC50 was 90 nM.

**Q.** What about the Ki [1] of the same compound?
**A.** Its Ki is 0.78 nM.

**Q.** What about the IC50 [2] of the same compound?
**A.** The IC50 was 30000 nM.

**Q.** And the Ki [2]?
**A.** The Ki was 6.59 nM.

**Q.** `CC(C)Cc1nc(N)nc(N)c1-c1ccc(Cl)cc1` [5-(4-chlorophenyl)-6-(2-methylpropyl)pyrimidine-2,4-diamine] was tested. Which IC50 [1] did it give?
**A.** The IC50 was 220 nM.

**Q.** What about the Ki [1] of the same compound?
**A.** The Ki was 1.4 nM.

**Q.** And the IC50 [2]?
**A.** The IC50 was 18200 nM.

**Q.** And the Ki [2]?
**A.** Its Ki is 28.1 nM.

**Q.** `CCCCCCCCCc1nc(N)nc(N)c1-c1ccc(Cl)cc1` [5-(4-chlorophenyl)-6-nonylpyrimidine-2,4-diamine] was tested. Which IC50 [1] did it give?
**A.** Its IC50 is 2200 nM.

**Q.** And the Ki [1]?
**A.** The Ki was 4.29 nM.

**Q.** And the IC50 [2]?
**A.** The IC50 was greater than 50000 nM.

**Q.** And the Ki [2]?
**A.** The Ki was 24.5 nM.

**Q.** What does the source list for `Nc1ncc(-c2ccc(Cl)cc2)c(N)n1` [5-(4-chlorophenyl)pyrimidine-2,4-diamine]?
**A.** IC50 [1]: 1520 nM; Ki [1]: 3.42 nM; IC50 [2]: > 50000 nM; Ki [2]: 1080 nM

**Q.** Which IC50 [1] does the source give for `CCc1nc(N)nc(N)c1-c1ccc(C(C)(C)C)cc1` [5-(4-tert-butylphenyl)-6-ethylpyrimidine-2,4-diamine] here?
**A.** The IC50 was 1760 nM.

**Q.** What about the Ki [1] of the same compound?
**A.** The Ki was 1.14 nM.

**Q.** What about the IC50 [2] of the same compound?
**A.** Its IC50 is greater than 50000 nM.

**Q.** And the Ki [2]?
**A.** The Ki was 47.5 nM.

**Q.** `CCc1nc(N)nc(N)c1-c1ccc(C)cc1` [6-ethyl-5-(4-methylphenyl)pyrimidine-2,4-diamine] was tested. Which IC50 [1] did it give?
**A.** Its IC50 is 140 nM.

**Q.** What about the Ki [1] of the same compound?
**A.** Its Ki is 0.39 nM.

**Q.** What about the IC50 [2] of the same compound?
**A.** The IC50 was 12400 nM.

**Q.** And the Ki [2]?
**A.** The Ki was 2.21 nM.

**Q.** Which IC50 [1] does the source give for `CCCCCCc1nc(N)nc(N)c1-c1ccccc1` [6-hexyl-5-phenylpyrimidine-2,4-diamine] here?
**A.** Its IC50 is 230 nM.

**Q.** What about the IC50 [2] of the same compound?
**A.** Its IC50 is 3020 nM.

**Q.** What about the Ki [2] of the same compound?
**A.** The Ki was 0.9 nM.
